Patent publication US9714249B2 (Novartis AG, priority 2013, dated 2017)

The molecules below were run against BRD4-NUT-fusion (Homo sapiens (Human), UniProt O60885+Q86Y26) (assay: Nut-foci formation assay (HCS) in HCC2494 NUT midline carcinoma cells). Conditions: 24 hours, nuclear BRD4-NUT foci, immunofluorescence.
Assay type: cell-based
Protocol: Compound-mediated inhibition of BRD4 activity was monitored by quantification of the number and intensity of nuclear BRD4-NUT foci using automated immunofluorescence microscopy. Briefly, 5000 cells in 20 μl fresh medium were seeded into Poly-D-Lysine-precoated 384-well plates and incubated overnight at 37° C. and 5% CO2, followed by addition of 5 μl medium containing compound dilutions at 5-fold their final intended concentration. Dose-response effects were assessed by 3-fold serial dilutions of the test compound, starting at 10 μM. […] Assay plates were imaged using the appropriate filter sets on the Cellomics VTi automated fluorescence microscopy platform (ThermoFisher Scientific) and the population average of the number of NUT-foci per nucleus is quantified using the Cellomics Spot Detection BioApplication image analysis algorithm (ThermoFisher Scientific). The effect of a particular test compound concentration on NUT-foci number and intensity is expressed as percentage of the value obtained for cells treated with vehicle only (DMSO, 0.1% final concentration), which was set as 100.

IC50	SMILES
33.3 nM	Cc1cc(N2C(=O)c3c(C4CC4)nn(C)c3C2c2ccc(Cl)cc2)cn(C)c1=O (stereo not shown) [Example 1, 6-(4-chlorophenyl)-3-cyclopropyl-5-(1,5-dimethyl-6-oxo-1,6-dihydropyridin-3-yl)-1-methyl-5,6-dihydropyrrolo[3,4-c]pyrazol-4(1H)-one]
49 nM	Cc1cc(N2C(=O)c3c(C4CC4)nn(CCO)c3C2c2ccc(Cl)cc2)cn(C)c1=O (stereo not shown) [Example 3, 6-(4-chlorophenyl)-3-cyclopropyl-5-(1,5-dimethyl-6-oxo-1,6-dihydropyridin-3-yl)-1-(2-hydroxyethyl)-5,6-dihydropyrrolo[3,4-c]pyrazol-4(1H)-one]
29.9 nM	COCCn1nc(C2CC2)c2c1C(c1ccc(Cl)cc1)N(c1cc(C)c(=O)n(C)c1)C2=O (stereo not shown) [Example 4, 6-(4-chlorophenyl)-3-cyclopropyl-5-(1,5-dimethyl-6-oxo-1,6-dihydropyridin-3-yl)-1-(2-methoxyethyl)-5,6-dihydropyrrolo[3,4-c]pyrazol-4(1H)-one]
138 nM	Cc1cc(N2C(=O)c3c(C4CC4)nn(-c4ccnn4C)c3C2c2ccc(Cl)cc2)cn(C)c1=O (stereo not shown) [Example 5, 6-(4-chlorophenyl)-3-cyclopropyl-5-(1,5-dimethyl-6-oxo-1,6-dihydropyridin-3-yl)-1-(1-methyl-1H-pyrazol-5-yl)-5,6-dihydropyrrolo[3,4-c]pyrazol-4(1H)-one]
108 nM	Cc1[nH]nc2c1C(=O)N(c1cc(Cl)c(=O)n(C)c1)C2c1ccc(Cl)cc1 (stereo not shown) [Example 6, 5-(5-chloro-1-methyl-6-oxo-1,6-dihydropyridin-3-yl)-6-(4-chlorophenyl)-3-methyl-5,6-dihydropyrrolo[3,4-c]pyrazol-4(2H)-one]
74.4 nM	COc1ncccc1-n1nc2c(c1C)C(=O)N(c1cc(Cl)c(=O)n(C)c1)C2c1ccc(Cl)cc1 (stereo not shown) [Example 7b, 5-(5-chloro-1-methyl-6-oxo-1,6-dihydropyridin-3-yl)-6-(4-chlorophenyl)-2-(2-methoxypyridin-3-yl)-3-methyl-5,6-dihydropyrrolo[3,4-c]pyrazol-4(2H)-one]
58 nM	COc1ncc(-n2nc3c(c2C)C(=O)N(c2cc(Cl)c(=O)n(C)c2)C3c2ccc(Cl)cc2)cn1 (stereo not shown) [Example 8b, 5-(5-chloro-1-methyl-6-oxo-1,6-dihydropyridin-3-yl)-6-(4-chlorophenyl)-2-(2-methoxypyrimidin-5-yl)-3-methyl-5,6-dihydropyrrolo[3,4-c]pyrazol-4(2H)-one]
108 nM	Cc1nn(C)c2c1C(=O)N(c1cc(C)c(=O)n(C)c1)C2c1ccc(Cl)cc1 (stereo not shown) [Example 10, 6-(4-chlorophenyl)-5-(1,5-dimethyl-6-oxo-1,6-dihydropyridin-3-yl)-1,3-dimethyl-5,6-dihydropyrrolo[3,4-c]pyrazol-4(1H)-one]
41.7 nM	Cc1nn(C2CC2)c2c1C(=O)N(c1cc(C)c(=O)n(C)c1)C2c1ccc(Cl)cc1 (stereo not shown) [Example 11, 6-(4-chlorophenyl)-1-cyclopropyl-5-(1,5-dimethyl-6-oxo-1,6-dihydropyridin-3-yl)-3-methyl-5,6-dihydropyrrolo[3,4-c]pyrazol-4(1H)-one]
48.4 nM	Cc1nn(C(C)C)c2c1C(=O)N(c1cc(C)c(=O)n(C)c1)C2c1ccc(Cl)cc1 (stereo not shown) [Example 12, 6-(4-chlorophenyl)-5-(1,5-dimethyl-6-oxo-1,6-dihydropyridin-3-yl)-1-isopropyl-3-methyl-5,6-dihydropyrrolo[3,4-c]pyrazol-4(1H)-one]
60.7 nM	COc1ncccc1-c1nn(C)c2c1C(=O)N(c1cc(C)c(=O)n(C)c1)C2c1ccc(Cl)cc1 (stereo not shown) [Example 15, 6-(4-chlorophenyl)-5-(1,5-dimethyl-6-oxo-1,6-dihydropyridin-3-yl)-3-(2-methoxypyridin-3-yl)-1-methyl-5,6-dihydropyrrolo[3,4-c]pyrazol-4(1H)-one]
60.6 nM	COc1ncccc1-c1nn(C)c2c1C(=O)N(c1cc(C)c(=O)n(C)c1)[C@@H]2c1ccc(Cl)cc1 [Example 16, (R)-6-(4-chlorophenyl)-5-(1,5-dimethyl-6-oxo-1,6-dihydropyridin-3-yl)-3-(2-methoxypyridin-3-yl)-1-methyl-5,6-dihydropyrrolo[3,4-c]pyrazol-4(1H)-one]
40.3 nM	COc1ncccc1-n1nc2c(c1C)C(=O)N(c1cc(C)c(=O)n(C)c1)C2c1ccc(Cl)cc1 (stereo not shown) [Example 17b, 6-(4-chlorophenyl)-5-(1,5-dimethyl-6-oxo-1,6-dihydropyridin-3-yl)-2-(2-methoxypyridin-3-yl)-3-methyl-5,6-dihydropyrrolo[3,4-c]pyrazol-4(2H)-one]
21.7 nM	CCOc1ncccc1-n1nc2c(c1C)C(=O)N(c1cc(C)c(=O)n(C)c1)C2c1ccc(Cl)cc1 (stereo not shown) [Example 18b, 6-(4-chlorophenyl)-5-(1,5-dimethyl-6-oxo-1,6-dihydropyridin-3-yl)-2-(2-ethoxypyridin-3-yl)-3-methyl-5,6-dihydropyrrolo[3,4-c]pyrazol-4(2H)-one]
66.7 nM	Cc1nn(-c2cccnc2F)c2c1C(=O)N(c1cc(C)c(=O)n(C)c1)C2c1ccc(Cl)cc1 (stereo not shown) [Example 19, 6-(4-chlorophenyl)-5-(1,5-dimethyl-6-oxo-1,6-dihydropyridin-3-yl)-1-(2-fluoropyridin-3-yl)-3-methyl-5,6-dihydropyrrolo[3,4-c]pyrazol-4(1H)-one]
73.6 nM	COc1ccc(-n2nc3c(c2C)C(=O)N(c2cc(C)c(=O)n(C)c2)C3c2ccc(Cl)cc2)cn1 (stereo not shown) [Example 20a, 6-(4-chlorophenyl)-5-(1,5-dimethyl-6-oxo-1,6-dihydropyridin-3-yl)-2-(6-methoxypyridin-3-yl)-3-methyl-5,6-dihydropyrrolo[3,4-c]pyrazol-4(2H)-one]
57.6 nM	COc1ccc(-n2nc(C)c3c2C(c2ccc(Cl)cc2)N(c2cc(C)c(=O)n(C)c2)C3=O)cn1 (stereo not shown) [Example 20b, 6-(4-chlorophenyl)-5-(1,5-dimethyl-6-oxo-1,6-dihydropyridin-3-yl)-1-(6-methoxypyridin-3-yl)-3-methyl-5,6-dihydropyrrolo[3,4-c]pyrazol-4(1H)-one]

SMILES	IC50
CNC1=C(C(=N)C2CC2)C(=O)N(c2cc(C)c(=O)n(C)c2)[C@@H]1c1ccc(Cl)cc1 [Example 2]	20.1 nM
COc1ncc(-n2nc(C)c3c2C(c2ccc(Cl)cc2)N(c2cc(Cl)c(=O)n(C)c2)C3=O)cn1 (stereo not shown) [Example 8a, 5-(5-chloro-1-methyl-6-oxo-1,6-dihydropyridin-3-yl)-6-(4-chlorophenyl)-1-(2-methoxypyrimidin-5-yl)-3-methyl-5,6-dihydropyrrolo[3,4-c]pyrazol-4(1H)-one]	298 nM
